What is called IC50 is the concentration that inhibits the measured activity by half.

The nature of the experiment: Inhibitory concentration against lipoprotein-associated phospholipase A2 (Lp-PLA2) was determined in Pseudomonas fluorescens (DMS 115797).

`CCCCC/C=C\C/C=C\CCCCCCCC(=O)OC[C@H](O)CO`: the IC50 was 52 µM.

Regarding `CCCCC/C=C\C/C=C\CCCCCCCC(=O)OC[C@@H](O)CO` [GLYCERYL MONOLINOLEATE], the midpoint of inhibition, the IC50, lay at 4.5 µM.

The values above are taken from ChEMBL document CHEMBL1142754, “Lp-PLA2 inhibitory activities of fatty acid glycerols isolated from Saururus chinensis roots” (Bioorg Med Chem Lett, 2005).
